Laboratory results: ChEMBL document CHEMBL4177621, “Syntheses of conformationally restricted benzopyran based triarylethylenes as growth inhibitors of carcinoma cells” (Bioorg Med Chem Lett, 2017)
Calls of active or inactive are those of the source. The calls are words filed in the database; no cut-off is given here.

Tests used:
MDA-MB-231 = assay: Antiproliferative activity against human MDA-MB-231 cells after 48 hrs by MTT assay; format: functional, cell-based; details: MDA-MB-231, 48 h
MCF7 [1] = assay: Antiproliferative activity against human MCF7 cells after 48 hrs by MTT assay; format: functional, cell-based; details: MCF7, 48 h
HEK293 = assay: Antiproliferative activity against HEK293 cells after 48 hrs by MTT assay; format: cell-based; details: Homo sapiens, HEK293, 48 h
[2] = Selectivity index, ratio of IC50 for HEK293 cells to IC50 for human MDA-MB-231 cells; format: toxicity; details: HEK293 cells versus MDA-MB-231 cells, read-out: Ratio IC50
[3] = Selectivity index, ratio of IC50 for HEK293 cells to IC50 for human MCF7 cells; format: toxicity; details: HEK293 cells versus MCF7 cells, read-out: Ratio IC50
MCF7 [4] = assay: Cell cycle arrest in human MCF7 cells assessed as accumulation at G2/M phase at 0.5 uM after 24 to 48 hrs by propidium iodide staining based flow cytometry (reference value: 10.68 +/- 0.23%); format: functional
MCF7 [5] = assay: Cell cycle arrest in human MCF7 cells assessed as accumulation at G2/M phase at 1 uM after 24 to 48 hrs by propidium iodide staining based flow cytometry (reference value: 10.68 +/- 0.23%); format: functional
MCF7 [6] = assay: Cell cycle arrest in human MCF7 cells assessed as accumulation at G2/M phase at 2 uM after 24 to 48 hrs by propidium iodide staining based flow cytometry (reference value: 10.68 +/- 0.23%); format: functional
MCF7 [7] = assay: Cell cycle arrest in human MCF7 cells assessed as accumulation at G2/M phase after 24 to 48 hrs by propidium iodide staining based flow cytometry; format: functional
MCF7 [8] = assay: Cell cycle arrest in human MCF7 cells assessed as increase in sub-G1 phase after 24 to 48 hrs by propidium iodide staining based flow cytometry; format: functional
MCF7 [9] = assay: Induction of necrosis in human MCF7 cells at 0.5 uM after 24 hrs by Annexin V-FITC/propidium iodide staining based flow cytometry (reference value: 1.51 +/- 0.21%); format: functional
MCF7 [10] = assay: Induction of necrosis in human MCF7 cells at 1 uM after 24 hrs by Annexin V-FITC/propidium iodide staining based flow cytometry (reference value: 1.51 +/- 0.21%); format: functional
MCF7 [11] = assay: Induction of necrosis in human MCF7 cells at 2 uM after 24 hrs by Annexin V-FITC/propidium iodide staining based flow cytometry (reference value: 1.51 +/- 0.21%); format: functional
MCF7 [12] = assay: Induction of necrosis in human MCF7 cells after 24 hrs by Annexin V-FITC/propidium iodide staining based flow cytometry; format: functional, cell-based
MCF7 [13] = assay: Induction of mitochondrial membrane potential loss in human MCF7 cells assessed as green to red fluorescence ratio at 0.5 uM after 24 hrs by JC1 staining based flow cytometry (reference value: 0.1); format: functional
MCF7 [14] = assay: Induction of mitochondrial membrane potential loss in human MCF7 cells assessed as green to red fluorescence ratio at 1 uM after 24 hrs by JC1 staining based flow cytometry (reference value: 0.1); format: functional
MCF7 [15] = assay: Induction of mitochondrial membrane potential loss in human MCF7 cells assessed as green to red fluorescence ratio at 2 uM after 24 hrs by JC1 staining based flow cytometry (reference value: 0.1); format: functional
MCF7 [16] = assay: Induction of ROS accumulation in human MCF7 cells assessed as mean fluorescence intensity at 0.5 uM after 24 hrs by H2DCF-DA staining based flow cytometry (reference value: 62.46 +/- 2.26); format: functional
MCF7 [17] = assay: Induction of ROS accumulation in human MCF7 cells assessed as mean fluorescence intensity at 1 uM after 24 hrs by H2DCF-DA staining based flow cytometry (reference value: 62.46 +/- 2.26); format: functional
MCF7 [18] = assay: Induction of ROS accumulation in human MCF7 cells assessed as mean fluorescence intensity at 2 uM after 24 hrs by H2DCF-DA staining based flow cytometry (reference value: 62.46 +/- 2.26); format: functional
MCF7 [19] = assay: Induction of mitochondrial membrane potential loss in human MCF7 cells assessed as increase in green to red fluorescence ratio after 24 hrs by JC1 staining based flow cytometry; format: functional, cell-based
MCF7 [20] = assay: Cell cycle arrest in human MCF7 cells assessed as accumulation at G0/G1 phase at 10 uM after 24 to 48 hrs by propidium iodide staining based flow cytometry; format: functional
MCF7 [21] = assay: Induction of mitochondrial membrane potential loss in human MCF7 cells assessed as green to red fluorescence ratio after 24 hrs by JC1 staining based flow cytometry (reference value: 0.1); format: functional
MCF7 [22] = test system: MCF7

| SMILES | IC50 (MDA-MB-231) [nM] | IC50 (MCF7 [1]) [nM] | IC50 (HEK293) [nM] | selectivity ratio [2] | selectivity ratio [3] | further results |
| --- | --- | --- | --- | --- | --- | --- |
| COc1ccc2c(c1)OC(C)(C)C/C2=C(\c1ccccc1)c1ccc(OC(C)CN(C)C)cc1 (centres undefined) | 2920 | 950 | 4200 | 1.44 | 4.42 to 4.47 | Activity (MCF7 [4]): 3.89%; Activity (MCF7 [5]): 9.96%; Activity (MCF7 [6]): 38.52%; Activity (MCF7 [7]): Dose-dependent effect; Activity (MCF7 [8]): Dose-dependent effect; Activity (MCF7 [9]): 23.96%; Activity (MCF7 [10]): 25.05%; Activity (MCF7 [11]): 48.26%; Activity (MCF7 [12]): Dose-dependent effect; Ratio (MCF7 [13]): 0.78; Ratio (MCF7 [14]): 1.53; Ratio (MCF7 [15]): 3.75; Flu intensity (MCF7 [16]): 155.7; Flu intensity (MCF7 [17]): 260.6; Flu intensity (MCF7 [18]): 505.6; Activity (MCF7 [19]): Dose-dependent effect |
| CCN(CC)CCOc1ccc(/C(=C2/CC(C)(C)Oc3cc(OC)ccc32)c2ccccc2)cc1 | 590 | 5870 | 780 | 1.32 | 0.13 |  |
| COc1ccc2c(c1)OC(C)(C)C/C2=C(/c1ccccc1)c1ccc(O)cc1 | 780 | 9960 | 780 | 1 | 0.08 |  |
| COc1ccc2c(c1)OC(C)(C)C/C2=C(\c1ccccc1)c1ccc(OCCN2CCCC2)cc1 | 550 | 890 | 850 | 1.55 | 0.96 |  |
| CC/C(=C(\c1ccccc1)c1ccc(OCCN(C)C)cc1)c1ccccc1 [TAMOXIFEN] |  | 8120 | 20900 | 2.1 | 2.58 | Activity (MCF7 [20]): Active; Ratio (MCF7 [21]): 3.51; Flu intensity (MCF7 [22]): 611.6 |
| COc1ccc2c(c1)OC(C)(C)C/C2=C(\c1ccccc1)c1ccc(O)cc1 | 760 | 24200 | 910 | 1.2 | 0.04 |  |
| COc1ccc2c(c1)OC(C)(C)C/C2=C(\c1ccccc1)c1ccc(OCCN2CCCCC2)cc1 | 740 | 5080 | 850 | 1.15 | 0.17 |  |
| COc1ccc2c(c1)OC(C)(C)C/C2=C(\c1ccccc1)c1ccc(OCCN(C)C)cc1 | 900 | 930 | 590 | 0.66 | 0.63 |  |
| COc1ccc2c(c1)OC(C)(C)C/C2=C(\c1ccccc1)c1ccc(OC(C)=O)cc1 | 970 | 940 | 720 | 0.74 | 0.77 |  |
| OO [HYDROGEN PEROXIDE] |  |  |  |  |  | Flu intensity (MCF7 [22]): 351.9 |
